Among the data in patent publication US20130224219A1, “DRUG AND METHOD FOR THE PROPHYLAXIS OF HIV INFECTION AND FOR THE PROPHYLAXIS AND TREATMENT OF DISEASES CAUSED BY OR ASSOCIATED WITH HIV, INCLUDING AIDS” (priority 2010, published 2013) are inhibition values, retold here.

Structures are written as SMILES.

Broadly, the inhibition is the drop in the measured response relative to a control, in per cent.

The subject of the assay is HIV-1-LAI. Kind of assay: Inhibition of HIV replication in human peripheral blood mononuclear cells infected in vitro, p24 ELISA. The settings on record: Human immunodeficiency virus 1, PBMC, read-out: inhibition of HIV replication (nucleocapsid core protein p24 in cell supernatants). Type of assay: cell-based. On the procedure:
Antiretroviral action of the claimed medicinal agent was studied by inhibiting the replication of HIV in the culture of mononuclear cells of the peripheral human blood which were infected in vitro by the strain of HIV-1-LAI. Effective inhibition of HIV replication was evaluated by the content of basic nuclecapsid protein r24 in the supernatant of HIV.
Human peripheral blood mononuclear cells were isolated from the blood of healthy seronegative donors by density gradient centrifugation of Ficoll-Hypaque. Cells were activated for 3 days with […] phytogemmaglyutin P and 5 ME/ml of recombinant human interleukin-2 […]
Cell culture supernatants were collected at day 7 after infection. Efficacy of the drugs was determined by the inhibition of HIV replication, which was evaluated by content nucleocapsid core protein p24 of HIV in cell supernatants by ELISA (Retrotek Elisa kit).
Antiretroviral effect of the claimed medicinal agent studied by inhibiting HIV replication in cultured peripheral blood mononuclear cells of human infected in vitro HIV-1-LAI. Effective inhibition of HIV replication was evaluated by the content of basic nucleocapsid protein p24 in the supernatants of HIV. […]
(An ELISA detects its analyte on a solid surface through an enzyme-linked reagent.)

As for `Cc1cn([C@H]2C[C@H](N=[N+]=[N-])[C@@H](CO)O2)c(=O)[nH]c1=O` [AZT, zidovudine], the inhibition at 1 µM is 99%.
